For assay [1], the system named is Neutrophil. The experiment in a line: Antiinflammatory activity in human neutrophils assessed as inhibition of FMLP/CB-induced elastase release at 10 ug/mL. In kind it is functional.
Assay [2] concerns Human alphaherpesvirus 1. The experiment in a line: Antiviral activity against HSV1 KOS infected in african green monkey Vero cells assessed as inhibition of viral plaque formation in […] cells at 100 uM after 5 days by plaque reduction assay. It is filed as functional. The settings on record: Human alphaherpesvirus 1, KOS, 120 h.

SMILES strings stand for the structures.

For orientation: inhibition means the drop in the measured response relative to a control, in per cent. Turning to `C[C@H]([C@H](O)[C@@H]1C[C@@H](C)C(=O)O1)[C@@H]1[C@H]2[C@]1(C)CC[C@@]13O[C@]2(O)C(=O)[C@@H]1CC[C@H]1C(C)(C)O[C@@H]2[C@@H](O)C(=O)O[C@@]21[C@H]3O`, in assay [1], the inhibition at 10 µg/mL was 18.5%. On to `C[C@H]1C(=O)[C@@]2(C)CC[C@]34C[C@]56OC(=O)C[C@@]5(O)OC(C)(C)[C@@H]6C[C@H](O)[C@H]3C(=O)[C@@]3(O[C@H]5[C@H](OC(=O)[C@]5(C)O)[C@@H]1[C@]32C)O4` [ARISANLACTONE B], for which, in assay [2], the inhibition at 100 µM came out at 25%. In assay [1], the inhibition at 10 µg/mL came to 22.2%.

For `O=c1c(-c2ccc(O)cc2)coc2cc(O)cc(O)c12` [GENISTEIN], in assay [1], the inhibition at 10 µg/mL is 51.6%.

For `C[C@@H]1C(=O)O[C@H]2[C@@H]1O[C@]13O[C@@]4(CC[C@]5(C)C(=O)[C@H](C)[C@H]2[C@]15C)C[C@]12OC(=O)C[C@@]1(O)OC(C)(C)[C@@H]2C[C@H](O)[C@H]4C3=O` [SCHINDILACTONE E], the inhibition at 100 µM in assay [2] was 30%.

(Values after ChEMBL document CHEMBL1177729, “Nortriterpene lactones from the fruits of Schisandra arisanensis” (2010).)
